Target: T1, hDGAT1 (Homo sapiens, UniProt O75907)
T1 sequence (O75907 1-488): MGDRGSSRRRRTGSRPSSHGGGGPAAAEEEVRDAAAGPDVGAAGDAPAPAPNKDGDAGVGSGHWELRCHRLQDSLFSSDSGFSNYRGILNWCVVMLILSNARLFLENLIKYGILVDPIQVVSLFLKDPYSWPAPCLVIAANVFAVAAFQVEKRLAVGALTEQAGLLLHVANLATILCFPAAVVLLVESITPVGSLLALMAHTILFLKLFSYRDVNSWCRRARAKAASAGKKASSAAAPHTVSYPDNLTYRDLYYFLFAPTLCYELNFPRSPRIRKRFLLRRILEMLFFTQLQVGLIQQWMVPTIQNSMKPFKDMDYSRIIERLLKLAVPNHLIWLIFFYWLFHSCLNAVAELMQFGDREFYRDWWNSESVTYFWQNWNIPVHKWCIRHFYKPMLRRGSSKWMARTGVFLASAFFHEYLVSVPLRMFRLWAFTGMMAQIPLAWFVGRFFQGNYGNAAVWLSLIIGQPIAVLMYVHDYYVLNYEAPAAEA
Test: In-vitro DGAT1 assay (14C oleoyl CoA, hDGAT1 microsomes from Sf9 cells)
Conditions: read-out: % Inhibition of hDGAT1

inhibition at 1 µM [%] | SMILES
10 to 50 | COc1ccc(C(=O)Nc2ccc(-c3ccc4c(c3)C(=O)N([C@H](C(=O)O)C(C)C)C4)cc2)cc1OC [Example 142, (S)-2-(6-(4-(3,4-Dimethoxybenzamido)phenyl)-1-oxoisoindolin-2-yl)-3-methyl butanoic acid]
> 50 | CC(C)[C@@H](C(=O)O)N1Cc2ccc(-c3ccc(NC(=O)c4cc(-c5ccc(F)cc5)no4)cc3)cc2C1=O [Example 616, (S)-2-(6-(4-(3-(4-Fluorophenyl)isoxazole-5-carboxamido)phenyl)-1-oxoisoindolin-2-yl)-3-methylbutanoic acid]
> 50 | COc1cccc(NC(=S)Nc2ccc(-c3ccc4c(c3)C(=O)N([C@H](C(=O)O)C(C)C)C4)cc2)c1 [Example 60, (S)-2-(6-(4-(3-(3-Methoxyphenyl)thioureido)phenyl)-1-oxoisoindolin-2-yl)-3-methylbutanoic acid]
10 to 50 | CC(C)[C@@H](C(=O)O)N1Cc2cc(-c3ccc(NC(=O)NCc4ccccc4)cc3)ccc2C1=O [Example 233, (S)-2-(5-(4-(3-Benzylureido)phenyl)-1-oxoisoindolin-2-yl)-3-methylbutanoic acid]
10 to 50 | O=C(Nc1ccc(-c2ccc3c(c2)C(=O)N(C2(C(=O)O)CCCC2)C3)cc1)Nc1cccc(C(F)(F)F)c1 [Example 343, 1-(1-Oxo-6-(4-(3-(3-(trifluoromethyl)phenyl)ureido)phenyl)isoindolin-2-yl)cyclopentanecarboxylic acid]
> 50 | CC(C)[C@@H](C(=O)O)N1Cc2ccc(-c3ccc(NC(=O)c4nnc(-c5ccccc5)s4)cc3)cc2C1=O [Example 627, (S)-3-Methyl-2-(1-oxo-6-(4-(5-phenyl-1,3,4-thiadiazole-2-carboxamido)phenyl)isoindolin-2-yl)butanoic acid]
> 50 | CC(C)[C@@H](C(=O)O)N1Cc2ccc(-c3ccc(NC(=O)c4ccc(OC(F)(F)F)cc4)cc3Cl)cc2C1=O [Example 488, (S)-2-(6-(2-Chloro-4-(4-(trifluoromethoxy)benzamido)phenyl)-1-oxoisoindolin-2-yl)-3-methylbutanoic acid]

Further lines, the compound ahead of its results:

SMILES | inhibition at 1 µM [%]
Cc1cc(C)c(C(=O)Nc2ccc(-c3ccc4c(c3)C(=O)N([C@H](C(=O)O)C(C)C)C4)cc2)c(C)c1 [Example 154, (S)-3-Methyl-2-(1-oxo-6-(4-(2,4,6-trimethylbenzamido)phenyl)isoindolin-2-yl)butanoic acid] | 10 to 50
CC(C)[C@@H](C(=O)O)N1Cc2cc(-c3ccc(NS(=O)(=O)c4ccc(F)c(F)c4)cc3)ccc2C1=O [Example 289, (S)-2-(5-(4-(3,4-Difluorophenylsulfonamido)phenyl)-1-oxoisoindolin-2-yl)-3-methylbutanoic acid] | 10 to 50
CC(C)[C@@H](C(=O)O)N1Cc2ccc(-c3ccc(NC(=O)c4ccc(C(C)(C)C)cc4)nn3)cc2C1=O [Example 498, (S)-2-(6-(6-(4-tert-Butylbenzamido)pyridazin-3-yl)-1-oxoisoindolin-2-yl)-3-methylbutanoic acid] | > 50
CC(C)[C@@H](C(=O)O)N1Cc2ccc(-c3ccc(NC(=O)c4ccc(Cl)cc4)cc3F)cc2C1=O [Example 606, (S)-2-(6-(4-(4-Chlorobenzamido)-2-fluorophenyl)-1-oxoisoindolin-2-yl)-3-methyl butanoic acid] | 10 to 50
CCCCCc1ccc(C(=O)Nc2ccc(-c3ccc4c(c3)C(=O)N([C@H](C(=O)O)C(C)C)C4)c(F)c2)cc1 [Example 610, (S)-2-(6-(2-Fluoro-4-(4-pentylbenzamido)phenyl)-1-oxoisoindolin-2-yl)-3-methyl butanoic acid] | > 50
CC(C)[C@@H](C(=O)O)N1Cc2ccc(-c3ccc(NS(=O)(=O)c4ccc(F)cc4F)cc3)cc2C1=O [Example 84, (S)-2-(6-(4-(2,4-Difluorophenylsulfonamido)phenyl)-1-oxoisoindolin-2-yl)-3-methylbutanoic acid] | 10 to 50
